Assays:
[1] = molecular target: T1, ARF1 (ARFA1c), residues 18-181 (Arabidopsis thaliana, UniProt P36397); assay: tryptophan fluorescence nucleotide exchange (ex […] nm, em […] nm); format: binding; conditions: 1 uM GDP-loaded ARF, 66 uM GTPgammaS, 50 nM SEC7 domain of BIG5 (residues 587-791), 10 mM MgCl2, pH 7.5, 37 C
T1 construct: N-terminally truncated (residues 18-181), 6xHis-tagged (pET30a), expressed in E. coli BL21(DE3), Ni-NTA purified

[2] = molecular target: T2, ARFA (ARFB1b), residues 18-192 (Arabidopsis thaliana, UniProt Q9LFJ7); assay: as above; format: binding; conditions: 1 uM GDP-loaded ARF, 66 uM GTPgammaS, 50 nM SEC7 domain of BIG5 (residues 587-791), 10 mM MgCl2, pH 7.5, 37 C
T2 construct: N-terminally truncated (residues 18-192), 6xHis-tagged (pET30a), expressed in E. coli BL21(DE3), Ni-NTA purified
T2 sequence (Q9LFJ7 18-192): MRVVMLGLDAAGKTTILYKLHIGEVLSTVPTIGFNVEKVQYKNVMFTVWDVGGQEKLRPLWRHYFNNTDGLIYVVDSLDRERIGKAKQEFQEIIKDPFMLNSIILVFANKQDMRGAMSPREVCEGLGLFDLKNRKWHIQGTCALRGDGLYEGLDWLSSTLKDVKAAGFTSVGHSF

T1 sequence (P36397 18-181): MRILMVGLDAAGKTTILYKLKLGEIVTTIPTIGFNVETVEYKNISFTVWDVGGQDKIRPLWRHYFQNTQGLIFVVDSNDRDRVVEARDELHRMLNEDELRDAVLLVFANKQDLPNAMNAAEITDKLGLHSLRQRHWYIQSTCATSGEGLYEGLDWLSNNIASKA

Question: Which “tryptophan fluorescence nucleotide exchange (ex 298 nm, em 340 nm)” value [1] does the source give for `Nc1nc2c(ncn2[C@@H]2O[C@H](COP(=O)(O)OP(=O)(O)OP(O)(O)=S)[C@@H](O)[C@H]2O)c(=O)[nH]1` [GTPγS] here?
Answer: The SEC7 domain of BIG5 catalyzed GDP-GTP exchange on ARF1(wt), ARFA(wt) and ARFA-Q71L

Question: What about the “tryptophan fluorescence nucleotide exchange (ex 298 nm, em 340 nm)” value [2] of the same molecule?
Answer: The SEC7 domain of BIG5 catalyzed GDP-GTP exchange on ARF1(wt), ARFA(wt) and ARFA-Q71L
